Data published in US7728037B2, “Alpha-ketoglutarates of active ingredients and compositions containing same” (Sigma-Tau Industrie Farmaceutiche Riunite S.p.A., priority 2001, dated 2010).

Test system: rabbit heart papillary muscle subjected to hypoxia
Assay: Metabolic tests: ATP concentrations in rabbit heart papillary muscle subjected to hypoxia after oral treatment
Type: in vivo
Details: 1 g/kg by mouth or equimolecular doses, three consecutive days; tissue held anoxic for 90 minutes; untreated controls 1.70±0.68 to 0.46±0.071
Excerpt: After three consecutive days of treatment, sections of papillary muscle were isolated from the rabbit hearts and were perfused in a thermostatized bath with a saturated solution of 100% O2.

Row | Molecule | ATP concentrations in papillary muscle after hypoxia
1 | C[N+](C)(C)C[C@H](O)CC(=O)[O-] [L-carnitine] | 0.59 ± 0.31 µmol/g tissue
2 | L-carnitine alpha-ketoglutarate | 1.48 ± 0.72 µmol/g tissue
